Among the data in ChEMBL document CHEMBL1127021, “Structure-activity relationship of a series of phenylureas linked to 4-phenylimidazole. Novel potent inhibitors of acyl-CoA:cholesterol O-acyltransferase with antiatherosclerotic activity. 2” (J Med Chem, 1993) are Cholesterol reduction, IC50 and ED30 values, retold here.

Assay [1] deals with Rattus norvegicus. The assay is described as follows: Cholesterol lowering activity in rats after a dose of 1 mg/kg once a day for 2 days. Format: functional.
In assay [2] the target is T1, O-acyltransferase (Oryctolagus cuniculus, UniProt G1SFD9). The assay is described as follows: Inhibition against acyl coenzyme A:cholesterol acyltransferase derived from rabbit intestine microsomes.
T1 sequence (G1SFD9 1-524): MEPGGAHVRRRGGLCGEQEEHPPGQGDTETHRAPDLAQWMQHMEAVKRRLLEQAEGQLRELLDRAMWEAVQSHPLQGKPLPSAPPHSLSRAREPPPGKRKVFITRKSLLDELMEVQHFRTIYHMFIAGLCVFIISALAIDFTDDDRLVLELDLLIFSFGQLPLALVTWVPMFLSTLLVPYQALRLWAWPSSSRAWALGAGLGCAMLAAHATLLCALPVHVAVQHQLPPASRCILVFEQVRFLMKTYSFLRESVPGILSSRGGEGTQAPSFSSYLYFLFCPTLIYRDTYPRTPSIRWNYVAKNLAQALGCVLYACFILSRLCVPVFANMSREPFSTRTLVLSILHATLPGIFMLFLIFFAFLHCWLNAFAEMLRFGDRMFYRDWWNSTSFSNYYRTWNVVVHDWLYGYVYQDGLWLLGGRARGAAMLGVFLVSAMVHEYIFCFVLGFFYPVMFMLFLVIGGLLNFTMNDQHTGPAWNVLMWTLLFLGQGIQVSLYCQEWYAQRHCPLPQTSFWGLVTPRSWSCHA
The subject of assay [3] is Rattus norvegicus. The assay is described as follows: Cholesterol lowering activity in rats after a dose of 4 mg/kg once a day for 2 days. It counts as functional.
In assay [4] the target is T2, Acyl-CoA:cholesterol acyltransferase (Oryctolagus cuniculus, UniProt Q95214).
T2 sequence (Q95214 whole entry): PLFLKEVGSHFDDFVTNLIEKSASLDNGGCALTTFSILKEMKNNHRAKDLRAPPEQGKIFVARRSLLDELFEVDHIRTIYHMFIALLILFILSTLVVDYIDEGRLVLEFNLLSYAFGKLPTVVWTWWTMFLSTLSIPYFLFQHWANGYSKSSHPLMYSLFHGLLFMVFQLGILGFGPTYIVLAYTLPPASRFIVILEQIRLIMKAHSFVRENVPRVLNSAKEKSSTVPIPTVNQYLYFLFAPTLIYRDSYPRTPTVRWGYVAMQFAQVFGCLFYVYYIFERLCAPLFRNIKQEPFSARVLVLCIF
The assay is described as follows: Inhibition against acyl coenzyme A:cholesterol acyltransferase derived from rabbit aorta homogenate. Format: tissue-based.

Assay [5] deals with T2, Acyl-CoA:cholesterol acyltransferase. Description: Tested for inhibition against Acyl coenzyme A:cholesterol acyltransferase derived from rabbit aorta homogenate (>, denotes no effect at the concentration indicated).
For assay [6], the species on record is Rattus norvegicus. The assay is described as follows: Tested for hypocholesterolemic activity required to decrease serum total cholesterol. It counts as functional.
For assay [7], the system named is Rattus norvegicus. The assay is described as follows: Tested for cholesterol lowering activity in rats after a dose of 4 mg/kg once a day for 2 days (at a dose of 1 mg/kg once a day for 2 days). Format: functional.
In assay [8] the target is T1, O-acyltransferase. The assay is described as follows: Tested for inhibition against Acyl coenzyme A:cholesterol acyltransferase derived from rabbit intestine microsomes (>, denotes no effect at the concentration indicated).

Regarding `CCCCCNC(=O)Nc1c(C)cccc1OCCCn1cnc(-c2ccc(F)cc2F)c1`, the Cholesterol reduction was -23% in assay [1] and -48% in assay [3]. Further, the figures for the IC50 in assay [2] and in assay [4] were 290 nM and 120 nM, respectively.
In the case of `CCCCCNC(=O)Nc1c(C)cccc1OCCCn1cnc(-c2ccccc2)c1CSC`, the Cholesterol reduction in assay [1] is given as -20%; in assay [3], -33%. Further, the IC50 in assay [2] came out at 540 nM; in assay [4], 120 nM.
Consider `COCCCNC(=O)Nc1c(C)cccc1OCCCn1cnc(-c2ccccc2)c1C`, for which the IC50 in assay [2] is 300 nM; in assay [5], more than 1000 nM.
Turning to `Cc1cccc(OCCCn2cnc(-c3ccccc3)c2C)c1NC(=O)NC1CCCCC1`, the Cholesterol reduction in assay [1] is -42%; in assay [3], -53%. Also, the IC50 in assay [2] was determined as 100 nM; in assay [4], 180 nM.
With `CCCCCCCN(Cc1ccc(CC(C)(C)C)cc1)C(=O)Nc1ccc(F)cc1F` [CL-277082], the ED30 in assay [6] was determined as 1.5 mg/kg.
On to `CCCCCNC(=O)Nc1c(C)cccc1OCCCn1cnc(-c2ccccc2)c1COC`, for which the Cholesterol reduction in assay [1] is recorded as 18%; in assay [3], -47%. Further, the IC50 in assay [2] is 480 nM; in assay [4], 290 nM.
As to `CCCCCNC(=O)Nc1c(C)cccc1OCCCn1cnc(-c2ccccc2)c1C`, the Cholesterol reduction in assay [1] is reported as -38%; in assay [7], -51%. Moreover, the figures for the IC50 in assay [2] and in assay [4] were 50 nM and 120 nM, respectively.
For `CCCCCNC(=O)Nc1c(CC)cccc1OCCCn1cnc(-c2ccccc2)c1C`, the Cholesterol reduction is -51% in assay [1] and -60% in assay [3]. Further, the IC50 in assay [2] was determined as 80 nM; in assay [4], 44 nM.
For the compound `CCCCCNC(=O)Nc1c(C)cccc1OCCCn1cnc(-c2ccccc2)c1CC`, the figures for the Cholesterol reduction in assay [1] and in assay [3] were -28% and -49%, respectively. Also, the IC50 in assay [2] worked out at 170 nM; in assay [4], 79 nM.
With `CCCCNC(=O)Nc1c(C)cccc1OCCCn1cnc(-c2ccccc2)c1CC`, in assay [1], the Cholesterol reduction was -46%. Further, the ED30 in assay [6] stood at 0.5 mg/kg. In addition, in assay [4], 160 nM corresponded to half-maximal inhibition (IC50).
Take `CCCCCNC(=O)Nc1c(C)cccc1OCCCn1cnc(-c2ccc([N+](=O)[O-])cc2)c1`: the Cholesterol reduction was -31% in assay [1] and -33% in assay [3]. Further, the IC50 in assay [2] is 70 nM; in assay [4] it was 560 nM.
For the compound `CCCCNC(=O)Nc1c(C)cccc1OCCCn1cnc(-c2ccccc2)c1C(C)C`, the Cholesterol reduction in assay [1] is -52%. Further, the IC50 in assay [2] was found to be 130 nM; in assay [4], 12 nM. For the same compound, the ED30 in assay [6] amounted to 0.4 mg/kg.
In the case of `CCCCCNC(=O)Nc1c(OCCCn2cnc(-c3ccccc3)c2C)cccc1C(C)C`, the Cholesterol reduction in assay [1] was -40%; in assay [3], -59%. Also, the IC50 in assay [2] came to 71 nM; in assay [4], 45 nM.
As to `CCCCCNC(=O)Nc1c(OCCCn2cnc(-c3ccccc3)c2C)cccc1N(C)C`, the Cholesterol reduction in assay [3] is reported as -42%. For the same compound, the ED30 in assay [6] was 1.9 mg/kg.
For `CCCCCNC(=O)Nc1c(C)cccc1OCCCn1cnc(-c2ccccc2)c1`, the Cholesterol reduction was -28% in assay [1] and -52% in assay [3]. Besides, the values for the IC50 in assay [2] and in assay [4] were 250 nM and 310 nM, respectively.
As for `Cc1cccc(OCCCn2cnc(-c3ccccc3)c2C)c1NC(=O)NCCC(C)C`, the results for the Cholesterol reduction in assay [1] and in assay [3] were -59% and -63%, respectively. Further, the IC50 was determined as 140 nM in assay [2] and 100 nM in assay [4].
As for `CCCCCNC(=O)Nc1c(C)cccc1OCCCn1cnc(-c2ccccc2)c1CO`, the figures for the Cholesterol reduction in assay [1] and in assay [3] were -29% and -55%, respectively. For the same compound, the IC50 in assay [2] stood at 210 nM; in assay [4], 200 nM.
As for `CCCCCNC(=O)Nc1c(CO)cccc1OCCCn1cnc(-c2ccccc2)c1C`, the IC50 was more than 1000 nM in assay [8] and 3300 nM in assay [4].
Turning to `CCCCCNC(=O)Nc1c(CCC)cccc1OCCCn1cnc(-c2ccccc2)c1C`, the Cholesterol reduction in assay [1] is -34%; in assay [3] it was -50%. Moreover, the results for the IC50 in assay [2] and in assay [4] were 170 nM and 98 nM, respectively.
Take `CCCCCCNC(=O)Nc1c(C)cccc1OCCCn1cnc(-c2ccccc2)c1C`: the Cholesterol reduction in assay [1] was -43%; in assay [3] it was -46%. In addition, the figures for the IC50 in assay [2] and in assay [4] were 84 nM and 68 nM, respectively.
For the compound `CCOCCNC(=O)Nc1c(C)cccc1OCCCn1cnc(-c2ccccc2)c1C`, the results for the IC50 in assay [2] and in assay [5] were 340 nM and more than 1000 nM, respectively.
`CCCCNC(=O)Nc1c(C)cccc1OCCCn1cnc(-c2ccccc2)c1C`: the Cholesterol reduction in assay [1] was -34%; in assay [3], -45%. Besides, the IC50 amounted to 73 nM in assay [2] and 480 nM in assay [4].
As to `CCCCCNC(=O)Nc1c(C)cccc1OCCCn1cnc(-c2ccccc2)c1CCC`, the values for the Cholesterol reduction in assay [1] and in assay [3] were -49% and -56%, respectively. Also, the values for the IC50 in assay [2] and in assay [4] were 160 nM and 63 nM, respectively.
Consider `CCCCCNC(=O)Nc1c(C)cccc1OCCCn1cnc(-c2ccccc2)c1C(C)C`, for which the Cholesterol reduction in assay [1] is on record as -30%; in assay [3] it was -49%. In addition, the IC50 turned out to be 180 nM in assay [2] and 31 nM in assay [4].
As for `CCCCCNC(=O)Nc1c(C)cccc1OCCCn1cnc2c1CCc1ccccc1-2`, the Cholesterol reduction in assay [1] was -30%; in assay [3] it was -56%. Also, the IC50 in assay [2] and in assay [4] was 220 nM in each case.

The IC50 is the concentration at which inhibition is half-maximal. Read a high IC50 as lower potency.
